Laboratory results taken from paper PMC12408683 (Archives of Toxicology, 2025).

Experiments:
[1] = system: HepG2-CYP1A2 cells; assay: Alkaline comet assay (DNA strand breaks) in HepG2-CYP1A2 cells; details: positive control, 200 µM, 20 min
Protocol: (§1) As a positive control, tBuOOH (20 min, 200 µM) was used. Subsequently, the alkaline comet assay was performed to quantify DNA strand breaks as previously described (Haas et al. [2023b]). Per sample, at least 50 comets were counted with Comet IV software (Instem, Staffordshire, UK) using a Zeiss Axio Observer 7 microscope equipped with an Axiocam 305 mono and ZEN 3.2 software (Carl Zeiss, Jena, Germany).

[2] = system: HepG2 cells; details: positive control, 200 µM, 20 min
Protocol: as §1

[3] = system: calf thymus DNA; parameters: method as in Bergau et al. 2021; details: ref Bergau et al. 2021; cited from earlier work
[4] = system: HepG2-CYP1A2 cells; details: positive control
Protocol: The CBMN assay was performed according to the OECD test guideline #487. Therefore, 2 × 10^5 cells were seeded in 3.5 cm dishes and allowed to adhere for 24 h. […] After the 24 h treatment, the medium was discarded and the cells were incubated with fresh medium, containing 6 µg/mL cytochalasin B as cytokinesis inhibitor. The cells were then left to grow for 72 h, allowing for 1.5–2 × cell cycles. Subsequently, the cells were rinsed with PBS and fixed with ice-cold methanol for 10 min at –20 °C. Cells were washed and embedded with Vectashield® containing DAPI (Vector Labs, Burlingame, CA, USA). The samples were analysed with a Zeiss Axio Observer 7 microscope equipped with an Axiocam 305 mono and a 63 × oil immersion objective (plan-apochromat 63x/1.40 DIC M27) using ZEN Software 3.2. 500 binucleated cells per sample were analysed for micronuclei formation.
As benchmark response (BMR) for all concentration–response curves (adducts, micronuclei), a 2.0-fold increase vs. solvent control was used (BMC100, critical effect size = 1). The determined BMC100 and the corresponding upper and lower boundary (BMCU and BMCL, respectively) of the 90% confidence interval (CI) were used for potency comparison.

[5] = system: HepG2 cells; assay: Resazurin reduction assay (cytotoxicity) in HepG2 cells; details: positive control 10 µM, time-dependent
[6] = parameters: method as in Carlsson et al. 2022; details: ref Carlsson et al. 2022; cited from earlier work
[7] = parameters: method as in Carlsson et al. 2022; details: concentrations below 25 µM; ref Carlsson et al. 2022; cited from earlier work
[8] = system: human liver biopsies; parameters: method as in Herrmann et al. 2013; details: ref Herrmann et al. 2013; cited from earlier work

## CC(C)(C)OO [tBuOOH, tert-butyl hydroperoxide, reference compound]
[1]
  DNA strand breaks (alkaline comet assay): strong DNA strand break induction
[2]
  DNA strand breaks (alkaline comet assay): strong DNA strand break induction

## C/C=C/c1ccc(OC)cc1 [anethole]
[3]
  E3′-N2-dG adduct levels vs equimolar ES concentrations: several times lower

## CO[C@@]12[C@H](COC(N)=O)C3=C(C(=O)C(C)=C(N)C3=O)N1C[C@@H]1N[C@@H]12 [MMC, mitomycin C, reference compound]
[4]
  MN (CBMN): robust increase in MN

## COc1cc([C@@H]2c3cc4c(cc3[C@@H](O[C@@H]3O[C@@H]5CO[C@@H](C)O[C@H]5[C@H](O)[C@H]3O)[C@H]3COC(=O)[C@H]23)OCO4)cc(OC)c1O [etoposide, reference compound]
[5]
  cytotoxicity (resazurin reduction assay): cytotoxic

## C=CC(O)c1ccc(OC)c(OC)c1 (centres unmarked) [1′OH-ME, 1′-hydroxymethyleugenol]
[6]
  alkaline comet assay outcome: negative
[7]
  cytotoxicity: not cytotoxic

## C=CCc1ccc(OC)c(OC)c1 [ME, methyleugenol]
[8]
  ME-derived DNA adducts, median: 13 adducts/10^8 nts
